Source: PMC8162404, “Proteomimetic surface fragments distinguish targets by function” (Chemical Science, 2020)

Columns and labels:
CaM [1] = target: T1, CaM (Bos taurus, UniProt P62157); assay: Pull-down assay with immobilized protein and LSM libraries; assay type: binding, bovine; settings: H14 library; 1:2 stoichiometry assumed; read-out: Surface mapping KD (apparent)
T1 construct: made in house; host or cells: E. coli BL21 (DE3)
How it was run: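 CaM buffer was 20 mM HEPES pH 7.4, 150 mM NaCl, 5 mM CaCl2. LSM sublibrary members ([…]) incubated 30 min, RT, with equimolar His-tagged protein on Co-NTA resin. HPLC-MS measured unbound probes; bound fraction relative to resin-only background gave dissociation constants.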

Gal-1 [2] = target: T2, Gal-1 (Homo sapiens, UniProt P09382); assay: as above; assay type: binding; settings: H14 library; 1:1 binding assumed; read-out: Surface mapping KD (apparent)
T2 construct: made in house; host or cells: E. coli BL21(DE3)
How it was run: (§1)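 Buffers were HEPES pH 7.4 with 150 mM NaCl, plus 1 mM TCEP and 1 mM CaCl2 (50 mM HEPES) for S100A4 and S100B, 1 mM TCEP for Gal-1, and no additive for RecQ-WH. Immobilized protein at 64 µM was equilibrated 30 min with the LSM sublibrary, and unbound probes were measured by LC-MS.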

S100A4 = target: T3, S100A4 (Homo sapiens, UniProt P26447); assay: as above; assay type: binding; settings: H14 library; 1:1 binding assumed; read-out: Surface mapping KD (apparent)
T3 construct: made in house; host or cells: Escherichia coli BL21(DE3)
How it was run: as §1

S100B [3] = target: T4, S100B (Homo sapiens, UniProt P04271); assay: as above; assay type: binding; settings: H14 library; 1:1 binding assumed; read-out: Surface mapping KD (apparent)
T4 construct: made in house; host or cells: Escherichia coli BL21(DE3)
T4 sequence (P04271 1-92): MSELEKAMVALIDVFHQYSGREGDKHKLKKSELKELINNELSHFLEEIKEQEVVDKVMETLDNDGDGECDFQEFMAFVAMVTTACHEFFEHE
How it was run: as §1

S100B [4] = target: T4, S100B; assay: Competition pull-down with native ligand RSK1 (689–735); assay type: binding; settings: H14 library; competitor peptide 200 µM; read-out: Surface mapping KD (apparent), competition
Gal-1 [5] = target: T2, Gal-1; assay: Competition pull-down with lactose; assay type: binding; settings: H14 library; lactose 10 mM; read-out: Surface mapping KD (apparent), competition
How it was run: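 His6-tagged proteins immobilized on Co-NTA resin at 64 µM final with 64-member LSM foldamer sublibraries (1 M each, as printed) in pH 7.4 HEPES/NaCl buffers (Ca2+/TCEP per target), 30 min RT; competitor peptides 200 µM final, lactose 10 mM for Gal-1. Bound fractions from LC-MS loss vs protein-free resin; KD assuming 1:1 binding.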

CaM [6] = target: T1, CaM; assay: Competition pull-down with native ligand TRPV1-Ct15; assay type: binding, bovine; settings: H14 library; competitor peptide 200 µM; read-out: Surface mapping KD (apparent), competition

T2 sequence (P09382 whole entry): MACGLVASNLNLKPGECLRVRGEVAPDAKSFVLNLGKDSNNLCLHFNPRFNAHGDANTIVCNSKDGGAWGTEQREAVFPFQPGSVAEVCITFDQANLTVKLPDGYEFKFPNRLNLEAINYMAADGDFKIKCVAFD
T3 sequence (P26447 whole entry): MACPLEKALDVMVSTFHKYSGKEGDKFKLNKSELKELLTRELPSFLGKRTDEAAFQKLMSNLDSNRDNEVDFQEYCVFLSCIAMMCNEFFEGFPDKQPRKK

| SMILES | Kd (CaM [1]) [µM] | Kd (Gal-1 [2]) [µM] | Kd (S100A4) [µM] | Kd (S100B [3]) [µM] | Kd (S100B [4]) [µM] | Kd (Gal-1 [5]) [µM] | Kd (CaM [6]) [µM] |
| --- | --- | --- | --- | --- | --- | --- | --- |
| CSCC[C@@H](CC(=O)N[C@H]1CCCC[C@@H]1C(N)=O)NC(=O)[C@H]1CCCC[C@@H]1NC(=O)[C@H]1CCCC[C@@H]1NC(=O)C[C@H](C)NC(=O)[C@H]1CCCC[C@@H]1N [H14 AM] | 98 | 307 | 10 | 256 | 359 | 487 | – |
| CC(C)[C@@H](CC(=O)N[C@H]1CCCC[C@@H]1C(N)=O)NC(=O)[C@H]1CCCC[C@@H]1NC(=O)[C@H]1CCCC[C@@H]1NC(=O)C[C@H](C)NC(=O)[C@H]1CCCC[C@@H]1N [H14 AV] | 42 | 100 | 6 | 153 | 316 | 201 | – |
| C[C@@H](CC(=O)N[C@H]1CCCC[C@@H]1C(=O)N[C@H]1CCCC[C@@H]1C(=O)N[C@H](CC(=O)N[C@H]1CCCC[C@@H]1C(N)=O)Cc1c[nH]c2ccccc12)NC(=O)[C@H]1CCCC[C@@H]1N [H14 AW] | 2 | 203 | 42 | 42 | 127 | – | 297 |
| CSCC[C@@H](CC(=O)N[C@H]1CCCC[C@@H]1C(N)=O)NC(=O)[C@H]1CCCC[C@@H]1NC(=O)[C@H]1CCCC[C@@H]1NC(=O)C[C@H](CC(=O)O)NC(=O)[C@H]1CCCC[C@@H]1N [H14 DM] | – | – | – | – | 159 | 397 | 322 |
| CC[C@H](C)[C@@H](CC(=O)N[C@H]1CCCC[C@@H]1C(=O)N[C@H]1CCCC[C@@H]1C(=O)N[C@H](CC(=O)N[C@H]1CCCC[C@@H]1C(N)=O)[C@@H](C)O)NC(=O)[C@H]1CCCC[C@@H]1N [H14 IT] | 51 | 185 | 19 | 142 | 373 | 333 | – |
| CSCC[C@@H](CC(=O)N[C@H]1CCCC[C@@H]1C(=O)N[C@H]1CCCC[C@@H]1C(=O)N[C@@H](CCC(N)=O)CC(=O)N[C@H]1CCCC[C@@H]1C(N)=O)NC(=O)[C@H]1CCCC[C@@H]1N [H14 MQ] | 145 | – | 476 | – | 394 | – | 489 |
| CSCC[C@@H](CC(=O)N[C@H]1CCCC[C@@H]1C(=O)N[C@H]1CCCC[C@@H]1C(=O)N[C@@H](CO)CC(=O)N[C@H]1CCCC[C@@H]1C(N)=O)NC(=O)[C@H]1CCCC[C@@H]1N [H14 MS] | 106 | – | 320 | – | 391 | – | 431 |
| NC(=O)C[C@@H](CC(=O)N[C@H]1CCCC[C@@H]1C(N)=O)NC(=O)[C@H]1CCCC[C@@H]1NC(=O)[C@H]1CCCC[C@@H]1NC(=O)C[C@H](CC(N)=O)NC(=O)[C@H]1CCCC[C@@H]1N [H14 NN] | 162 | 246 | – | – | 120 | 444 | 290 |
| NC(=O)CC[C@@H](CC(=O)N[C@H]1CCCC[C@@H]1C(N)=O)NC(=O)[C@H]1CCCC[C@@H]1NC(=O)[C@H]1CCCC[C@@H]1NC(=O)C[C@H](CC(N)=O)NC(=O)[C@H]1CCCC[C@@H]1N [H14 NQ] | 190 | 257 | – | – | 478 | – | 222 |
| NC(=O)CC[C@@H](CC(=O)N[C@H]1CCCC[C@@H]1C(N)=O)NC(=O)[C@H]1CCCC[C@@H]1NC(=O)[C@H]1CCCC[C@@H]1NC(=O)C[C@H](CO)NC(=O)[C@H]1CCCC[C@@H]1N [H14 SQ] | 176 | 275 | – | – | 445 | 460 | 292 |
| C[C@@H](O)[C@@H](CC(=O)N[C@H]1CCCC[C@@H]1C(=O)N[C@H]1CCCC[C@@H]1C(=O)N[C@@H](CC(N)=O)CC(=O)N[C@H]1CCCC[C@@H]1C(N)=O)NC(=O)[C@H]1CCCC[C@@H]1N [H14 TN] | 176 | 275 | – | – | 445 | 460 | 292 |

Further lines, with some results ahead:

| Kd (CaM [1]) [µM] | Kd (Gal-1 [2]) [µM] | Kd (S100A4) [µM] | Kd (S100B [3]) [µM] | Kd (S100B [4]) [µM] | Kd (Gal-1 [5]) [µM] | SMILES | Kd (CaM [6]) [µM] |
| --- | --- | --- | --- | --- | --- | --- | --- |
| 8 | 160 | 34 | 170 | 294 | 425 | CC(C)C[C@@H](CC(=O)N[C@H]1CCCC[C@@H]1C(=O)N[C@H]1CCCC[C@@H]1C(=O)N[C@@H](C)CC(=O)N[C@H]1CCCC[C@@H]1C(N)=O)NC(=O)[C@H]1CCCC[C@@H]1N [H14 LA] | – |
| 14 | 116 | 138 | 82 | 167 | – | CC(C)C[C@@H](CC(=O)N[C@H]1CCCC[C@@H]1C(=O)N[C@H]1CCCC[C@@H]1C(=O)N[C@@H](CCCNC(=N)N)CC(=O)N[C@H]1CCCC[C@@H]1C(N)=O)NC(=O)[C@H]1CCCC[C@@H]1N [H14 LR] | – |
| 99 | 498 | 195 | 379 | 371 | – | CC(C)C[C@@H](CC(=O)N[C@H]1CCCC[C@@H]1C(=O)N[C@H]1CCCC[C@@H]1C(=O)N[C@@H](CO)CC(=O)N[C@H]1CCCC[C@@H]1C(N)=O)NC(=O)[C@H]1CCCC[C@@H]1N [H14 LS] | – |
| 39 | 336 | 66 | 162 | 294 | – | CC(C)C[C@@H](CC(=O)N[C@H]1CCCC[C@@H]1C(=O)N[C@H]1CCCC[C@@H]1C(=O)N[C@H](CC(=O)N[C@H]1CCCC[C@@H]1C(N)=O)[C@@H](C)O)NC(=O)[C@H]1CCCC[C@@H]1N [H14 LT] | – |
| 16 | 385 | 72 | 380 | 382 | – | CSCC[C@@H](CC(=O)N[C@H]1CCCC[C@@H]1C(=O)N[C@H]1CCCC[C@@H]1C(=O)N[C@@H](C)CC(=O)N[C@H]1CCCC[C@@H]1C(N)=O)NC(=O)[C@H]1CCCC[C@@H]1N [H14 MA] | – |
| 122 | 399 | – | – | 449 | 495 | CSCC[C@@H](CC(=O)N[C@H]1CCCC[C@@H]1C(=O)N[C@H]1CCCC[C@@H]1C(=O)N[C@@H](CC(N)=O)CC(=O)N[C@H]1CCCC[C@@H]1C(N)=O)NC(=O)[C@H]1CCCC[C@@H]1N [H14 MN] | – |
| 63 | 424 | 148 | 476 | 337 | – | CSCC[C@@H](CC(=O)N[C@H]1CCCC[C@@H]1C(=O)N[C@H]1CCCC[C@@H]1C(=O)N[C@H](CC(=O)N[C@H]1CCCC[C@@H]1C(N)=O)[C@@H](C)O)NC(=O)[C@H]1CCCC[C@@H]1N [H14 MT] | – |
| 38 | 114 | 35 | 299 | 393 | 375 | CC(C)[C@@H](CC(=O)N[C@H]1CCCC[C@@H]1C(=O)N[C@H]1CCCC[C@@H]1C(=O)N[C@@H](C)CC(=O)N[C@H]1CCCC[C@@H]1C(N)=O)NC(=O)[C@H]1CCCC[C@@H]1N [H14 VA] | – |
| 40 | 289 | 284 | 77 | 221 | – | CC(C)[C@@H](CC(=O)N[C@H]1CCCC[C@@H]1C(=O)N[C@H]1CCCC[C@@H]1C(=O)N[C@@H](CCCNC(=N)N)CC(=O)N[C@H]1CCCC[C@@H]1C(N)=O)NC(=O)[C@H]1CCCC[C@@H]1N [H14 VR] | – |
| 142 | 347 | 79 | 382 | 484 | – | CC(C)[C@@H](CC(=O)N[C@H]1CCCC[C@@H]1C(=O)N[C@H]1CCCC[C@@H]1C(=O)N[C@H](CC(=O)N[C@H]1CCCC[C@@H]1C(N)=O)[C@@H](C)O)NC(=O)[C@H]1CCCC[C@@H]1N [H14 VT] | – |
| 111 | 313 | 435 | – | 476 | 271 | NC(=O)C[C@@H](CC(=O)N[C@H]1CCCC[C@@H]1C(N)=O)NC(=O)[C@H]1CCCC[C@@H]1NC(=O)[C@H]1CCCC[C@@H]1NC(=O)C[C@H](Cc1ccc(O)cc1)NC(=O)[C@H]1CCCC[C@@H]1N [H14 YN] | – |
| 123 | 238 | 227 | 480 | 449 | 439 | NC(=O)CC[C@@H](CC(=O)N[C@H]1CCCC[C@@H]1C(N)=O)NC(=O)[C@H]1CCCC[C@@H]1NC(=O)[C@H]1CCCC[C@@H]1NC(=O)C[C@H](Cc1ccc(O)cc1)NC(=O)[C@H]1CCCC[C@@H]1N [H14 YQ] | – |
| 30 | 396 | 222 | 416 | 403 | – | C[C@@H](O)[C@@H](CC(=O)N[C@H]1CCCC[C@@H]1C(N)=O)NC(=O)[C@H]1CCCC[C@@H]1NC(=O)[C@H]1CCCC[C@@H]1NC(=O)C[C@H](Cc1ccc(O)cc1)NC(=O)[C@H]1CCCC[C@@H]1N [H14 YT] | – |
